{"source": "patent US6458580B1", "about": "“Fungal sulphur source and method of using the same” (Commonwealth Scientific and Industrial Research Organisation, priority 1997, dated 2002)", "key": {"[1]": {"assay": "Effect of infusion on feed intake and digestibility", "format": "in vivo, sheep", "conditions": "for Digested DM, MPA / Digestibility (% DM), MPA / Intake DM, MPA: MPA infused at 192 mg Sulphur/sheep/day; for Digested DM, MPA / Digestibility (% DM), MPA / Intake DM, MPA / Digested DM, % (+) / Digestibility, % (+) / Intake DM, % (+) increase after infusion of MPA: individual sheep and Aver. n = 13; for Digested DM, % (+) / Digestibility, % (+) / Intake DM, % (+) increase after infusion of MPA: versus control period", "description": "Feed was prepared as previously described (see example 4). Initially 22 sheep were fed 1 kg of alkali straw/day in the animal house for 4 days to select out sheep not eating the diet. 19 sheep were weighted and transferred to metabolism cages and feed the alkali straw diet ad-lib. Sheep were fed and on the following day the feed refusal weighted and if less then 100 g remained a further 100 g was fed; if 100-200g of feed remained the sheep was given the same amount of feed; if over 200 g of feed was left the sheep was given 100 g less feed. Over the following week another 6 sheep were moved out of the experiment (usually due to very low or erratic intakes). […] After 14 days infusion the collection period of 7 days commenced. Feed refusals were weighted, recorded, and a sample of up to 200 g/day pooled for subsequent analyses. Spilt feed was collected daily, weighted, recorded, and discarded. Faeces were collected with separators that excluded urine. The faeces were weighed and sub-sampled and pooled for subsequent analyses. Pooled faeces and feed were stored at −20° C. and then dried in a hot air oven (faeces were initially dried at 70° C.) at 100° C. cooled and weighted to determine dry weight (DM). Following the last sampling the infusion was stopped in the first group of sheep and on the following day the infusion treatment was begun in the other group of seven sheep. The second period (the crossover) was conducted in the same way as the first period with the same samples being taken at the same times."}, "Cellutolytic Bacteria": {"tested_on": "Cellutolytic Bacteria", "assay": "Effect of infusion on cellulolytic bacteria in rumen fluid (most probable number)", "format": "in vivo", "set-up": "Cellutolytic Bacteria, MPA: unit not given here", "conditions": "individual sheep and Aver. n = 13; for Cellutolytic Bacteria, MPA: MPA infused at 192 mg Sulphur/sheep/day; for Cellutolytic Bacteria, log (+): versus control period", "description": "(§1) Feed was prepared as previously described (see example 4). Initially 22 sheep were fed 1 kg of alkali straw/day in the animal house for 4 days to select out sheep not eating the diet. 19 sheep were weighted and transferred to metabolism cages and feed the alkali straw diet ad-lib. Sheep were fed and on the following day the feed refusal weighted and if less then 100 g remained a further 100 g was fed; if 100-200g of feed remained the sheep was given the same amount of feed; if over 200 g of feed was left the sheep was given 100 g less feed. Over the following week another 6 sheep were moved out of the experiment (usually due to very low or erratic intakes). […] After 14 days infusion the collection period of 7 days commenced. At the end of the collection period samples of rumen digesta were taken for microbiology and other analyses. Rumen fluid was collected and fungal zoospores and total bacteria assessed as described in example 4 (the total bacteria were assessed on the same medium but without antibiotics). Cellulolytic bacteria were assessed by a most probable number count. Rumen fluid was serially diluted and subsamples of each dilution inoculated into 5 culture tubes containing an anaerobic medium containing rumen fluid and strips of filter paper. After incubation the presence of cellulolytic bacteria was detected by degradation of the paper and the numbers of positive tubes compared to tables to give a number of these bacteria in the original sample. Following the last sampling the infusion was stopped in the first group of sheep and on the following day the infusion treatment was begun in the other group of seven sheep. The second period (the crossover) was conducted in the same way as the first period with the same samples being taken at the same times."}, "Fungal Zoospores": {"tested_on": "Fungal Zoospores", "assay": "Effect of infusion on fungal zoospores in rumen fluid", "format": "in vivo, sheep", "conditions": "for Fungal Zoospores, MPA: MPA infused at 192 mg Sulphur/sheep/day; for Fungal Zoospores, MPA / Fungal Zoospores, log (+): log10 increase after infusion of MPA: individual sheep and Aver. n = 13; for Fungal Zoospores, log (+): log10 increase after infusion of MPA: versus control period", "description": "as §1, with “times. The number of zoospores in samples of strained ruminal fluid can be used to follow zoosporogenesis in the rumen and it provides a relative estimate of the size of the anaerobic fungal population. (1) Strain a sample of ruminal digesta through an open weave cloth, and collect the filtered fluid in a CO2-filled flask. (2) Serially dilute the fluid ten-fold in anaerobic dilution solution (ADS) to a final dilution of 10^−3. To do this, transfer 1 ml volumes using 1 ml disposable sterile syringes fitted with sterile 23 gauge (0.65 mm) needles to tubes containing 9 ml ADS, starting with fluid to form the 10^−1 dilution. Use a clean syringe at each dilution step. (3) Using a 1 ml syringe (and 23 ga. needle, as before) inoculate three roll tubes each with 0.2 ml of 10^−3 dilution. Immediately roll these tubes horizontally on ice until the agar sets. With the same syringe, inoculate three more roll tubes with 0.2 ml of 10^−2 dilution and roll them. Repeat with 10^−1 dilution and finally with undiluted fluid, if appropriate. (4) Incubate the roll tubes vertically at 39° C. for 5 d.” for “times.”"}, "[2]": {"conditions": "192 mg Sulphur/day/sheep, with the exception of one animal"}}, "note": "“And” between values parts separate entries of the source, which are not always exact repeats. Equal entries are not always repeated.", "data": [{"smiles": "O=C(O)CCS", "note": "[MPA, 3-mercaptopropanoic acid]", "values": [{"measurement": "response in digestive performance to infusion", "setting": "[1]; [2]", "result": "strong, positive, response"}, {"measurement": "Digested DM, MPA", "setting": "[1]; Table 4", "result": "357.26 g/day and 603.65 g/day and 558.00 g/day and 518.94 g/day and 806.76 g/day and 603.24 g/day and 630.64 g/day and 662.31 g/day and 673.01 g/day and 657.21 g/day and 714.69 g/day and 347.27 g/day and 414.97 g/day"}, {"measurement": "Digestibility (% DM), MPA", "setting": "[1]; Table 4", "result": "50.799 % DM and 51.891 % DM and 45.708 % DM and 52.812 % DM and 58.076 % DM and 53.589 % DM and 46.808 % DM and 51.433 % DM and 53.840 % DM and 51.933 % DM and 48.119 % DM and 54.648 % DM and 51.522 % DM"}, {"measurement": "Intake DM, MPA", "setting": "[1]; Table 4", "result": "703 g/day and 1163 g/day and 1221 g/day and 983 g/day and 1389 g/day and 1126 g/day and 1347 g/day and 1288 g/day and 1250 g/day and 1265 g/day and 1485 g/day and 635 g/day and 805 g/day"}, {"measurement": "Digested DM, MPA", "setting": "[1]; Table 4, mean of 13 sheep", "result": 581, "unit": "g/day"}, {"measurement": "Digestibility (% DM), MPA", "setting": "[1]; Table 4, mean of 13 sheep", "result": 51.6, "unit": "% DM"}, {"measurement": "Intake DM, MPA", "setting": "[1]; Table 4, mean of 13 sheep", "result": 1128, "unit": "g/day"}, {"measurement": "Digested DM, % (+)", "setting": "[1]; Table 4", "result": "38.13% and 51.61% and 32.51% and 37.28% and 41.04% and 36.94% and 24.76% and 17.23% and 46.34% and 40.49% and 9.57% and 38.47% and 63.31%"}, {"measurement": "Digestibility, % (+)", "setting": "[1]; Table 4", "result": "5.019% and 7.795% and 2.610% and 1.453% and 5.112% and 7.462% and 2.544% and 0.444% and 2.855% and 4.777% and 0.002% and 7.459% and 7.799%"}, {"measurement": "Intake DM, % (+) increase after infusion of MPA", "setting": "[1]; Table 4", "result": "24.5% and 28.8% and 24.9% and 33.5% and 28.6% and 17.9% and 18.0% and 16.2% and 38.6% (2×) and 27.5% and 9.6% and 19.6%"}, {"measurement": "Digested DM, % (+)", "setting": "[1]; Table 4, mean of 13 sheep", "result": 36.75, "unit": "%"}, {"measurement": "Digestibility, % (+)", "setting": "[1]; Table 4, mean of 13 sheep", "result": 4.26, "unit": "%"}, {"measurement": "Intake DM, % (+) increase after infusion of MPA", "setting": "[1]; Table 4, mean of 13 sheep", "result": 25.1, "unit": "%"}, {"measurement": "Intake DM, MPA", "setting": "[1]; Table 5", "result": "805 g/day and 703 g/day and 1163 g/day and 1221 g/day and 983 g/day and 1389 g/day and 1126 g/day and 1347 g/day and 1288 g/day and 1250 g/day and 1265 g/day and 1485 g/day and 635 g/day"}, {"measurement": "Intake DM, MPA", "setting": "[1]; Table 5, mean", "result": 1128, "unit": "g/day"}, {"measurement": "Intake DM, % (+) increase after infusion of MPA", "setting": "[1]; Table 5", "result": "38.6% (2×) and 24.5% and 28.8% and 24.9% and 33.5% and 28.6% and 17.9% and 18.0% and 16.2% and 27.5% and 9.6% and 19.6%"}, {"measurement": "Intake DM, % (+) increase after infusion of MPA", "setting": "[1]; Table 5, mean", "result": 25.1, "unit": "%"}, {"measurement": "Cellutolytic Bacteria, MPA", "setting": "Cellutolytic Bacteria", "result": "6.96 × 10^8 and 0.556 × 10^8 and 4.42 × 10^8 and 1.84 × 10^8 and 2.173 × 10^8 and 3.447 × 10^8 and 1.086 × 10^8 and 0.912 × 10^8 and 3.219 × 10^8 (3×) and 18.37 × 10^8 and 3.22 × 10^8"}, {"measurement": "Cellutolytic Bacteria, MPA", "setting": "Cellutolytic Bacteria; mean", "result": "4.05 × 10^8"}, {"measurement": "Cellutolytic Bacteria, log (+)", "setting": "Cellutolytic Bacteria", "result": "0.58 log and −0.52 log and 0.38 log and −0.24 log (2×) and 0.07 log and 0.50 log and 0.12 log and 1.76 log and 0.76 log and 1.00 log and 0.62 log and 0.47 log"}, {"measurement": "Cellutolytic Bacteria, log (+)", "setting": "Cellutolytic Bacteria; mean", "result": 0.40, "unit": "log"}, {"measurement": "response in numbers of rumen fungi to infusion", "setting": "Fungal Zoospores; [2]", "result": "strong, positive, response"}, {"measurement": "Fungal Zoospores, MPA", "setting": "Fungal Zoospores", "result": "2567 per ml rumen fluid and 7083 per ml rumen fluid and 3050 per ml rumen fluid and 7283 per ml rumen fluid and 1783 per ml rumen fluid and 7250 per ml rumen fluid and 6167 per ml rumen fluid and 4417 per ml rumen fluid and 9017 per ml rumen fluid and 6467 per ml rumen fluid and 11167 per ml rumen fluid and 5383 per ml rumen fluid and 4900 per ml rumen fluid"}, {"measurement": "Fungal Zoospores, MPA", "setting": "Fungal Zoospores; mean", "result": 5887, "unit": "per ml rumen fluid"}, {"measurement": "Fungal Zoospores, log (+): log10 increase after infusion of MPA", "setting": "Fungal Zoospores", "result": "2.7 log10 and 2.5 log10 and 2.0 log10 and 2.3 log10 and 0.4 log10 and 0.5 log10 and 0.7 log10 and 0.8 log10 and 0.2 log10 and 0.6 log10 and 1.0 log10 (2×) and 1.1 log10"}, {"measurement": "Fungal Zoospores, log (+): log10 increase after infusion of MPA", "setting": "Fungal Zoospores; mean", "result": 1.20, "unit": "log10"}]}]}
